Experiments:
NSCL cancer subpanel = test: NCI 60 subpanel summary; assay type: cell-based, human
Melanoma subpanel = test: NCI 60 subpanel summary; assay type: cell-based, human
Ovarian cancer subpanel = test: NCI 60 subpanel summary; assay type: cell-based, human
Renal cancer subpanel = test: NCI 60 subpanel summary; assay type: cell-based, human
Breast cancer subpanel = test: NCI 60 subpanel summary; assay type: cell-based, human
VEGFR-2 = target: T1, VEGFR-2 (Homo sapiens, UniProt P35968); test: VEGFR-2 kinase inhibitory assay (Kinase-Glo MAX); assay type: biochemical
T1 construct: purchased

[1] = test system: NCI 60 cancer cell line panel; test: NCI 60 full panel summary
HOP-92 = settings: Homo sapiens, HOP-92
COLO 205 = settings: Homo sapiens, COLO 205
UACC-62 = settings: Homo sapiens, UACC-62
UO-31 = settings: Homo sapiens, UO-31
HS 578T = settings: Homo sapiens
[2] = Homo sapiens, subpanel mean graph midpoint, read-out: MG-MID (GI50)
[3] = full panel MG-MID / subpanel MG-MID
[4] = single dose 10 μM, ovarian carcinoma

T1 sequence (P35968 20-1356): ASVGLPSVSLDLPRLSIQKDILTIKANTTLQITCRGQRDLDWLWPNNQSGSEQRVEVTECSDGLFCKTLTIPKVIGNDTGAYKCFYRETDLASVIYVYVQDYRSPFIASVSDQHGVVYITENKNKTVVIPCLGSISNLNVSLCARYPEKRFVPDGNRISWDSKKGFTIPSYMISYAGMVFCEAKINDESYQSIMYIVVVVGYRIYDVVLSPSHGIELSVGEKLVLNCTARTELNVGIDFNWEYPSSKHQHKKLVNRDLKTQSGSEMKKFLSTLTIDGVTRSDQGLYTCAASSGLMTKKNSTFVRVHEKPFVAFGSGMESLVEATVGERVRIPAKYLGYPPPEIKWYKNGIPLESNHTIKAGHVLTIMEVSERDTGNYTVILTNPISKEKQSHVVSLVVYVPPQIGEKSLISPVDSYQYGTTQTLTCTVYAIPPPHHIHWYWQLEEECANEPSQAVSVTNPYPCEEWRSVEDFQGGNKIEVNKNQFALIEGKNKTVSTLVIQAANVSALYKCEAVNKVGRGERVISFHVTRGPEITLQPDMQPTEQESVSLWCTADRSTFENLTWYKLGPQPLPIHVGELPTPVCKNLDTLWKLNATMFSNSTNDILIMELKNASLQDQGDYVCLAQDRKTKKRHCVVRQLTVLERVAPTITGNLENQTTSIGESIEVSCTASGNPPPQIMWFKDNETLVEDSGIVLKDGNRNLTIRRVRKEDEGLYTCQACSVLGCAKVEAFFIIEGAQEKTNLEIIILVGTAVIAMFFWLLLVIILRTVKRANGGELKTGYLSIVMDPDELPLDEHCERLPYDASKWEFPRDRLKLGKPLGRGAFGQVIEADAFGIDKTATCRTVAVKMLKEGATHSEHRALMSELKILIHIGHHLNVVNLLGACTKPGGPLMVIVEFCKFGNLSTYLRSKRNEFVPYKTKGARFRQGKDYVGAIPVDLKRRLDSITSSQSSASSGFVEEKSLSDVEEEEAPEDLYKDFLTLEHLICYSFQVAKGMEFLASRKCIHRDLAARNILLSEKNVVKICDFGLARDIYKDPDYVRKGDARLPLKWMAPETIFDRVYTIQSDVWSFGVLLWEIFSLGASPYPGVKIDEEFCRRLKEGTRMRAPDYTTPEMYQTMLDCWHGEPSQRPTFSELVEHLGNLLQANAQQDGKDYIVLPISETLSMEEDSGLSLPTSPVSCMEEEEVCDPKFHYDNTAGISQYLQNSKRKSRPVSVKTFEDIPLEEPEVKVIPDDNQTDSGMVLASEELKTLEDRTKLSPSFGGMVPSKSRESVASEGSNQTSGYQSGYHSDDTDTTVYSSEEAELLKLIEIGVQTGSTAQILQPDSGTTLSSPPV

Question: How did the GI50 (NSCL cancer subpanel; [2]) turn out when `c1ccc(-n2cc(C3CC(c4nc5ccccc5[nH]4)=NN3)c(-c3cc4ccccc4o3)n2)cc1` (centres unmarked) [3d, 3-(Benzofuran-2-yl)-4-(3-(1H-benzo[d]imidazol-2-yl)-4,5-dihydro-1H-pyrazol-5-yl)-1-phenyl-1H-pyrazole] was run?
Answer: Its GI50 is 4.02 µM.

Question: And the Selectivity index (NSCL cancer subpanel; [3])?
Answer: Its Selectivity index is 1.04.

Question: What about the GI50 (Melanoma subpanel; [2]) of the same molecule?
Answer: The GI50 was 3.92 µM.

Question: What about the Selectivity index (Melanoma subpanel; [3]) of the same molecule?
Answer: Its Selectivity index is 1.07.

Question: What about the GI50 (Ovarian cancer subpanel; [2]) of the same molecule?
Answer: Its GI50 is 4.32 µM.

Question: And the Selectivity index (Ovarian cancer subpanel; [3])?
Answer: Its Selectivity index is 0.97.

Question: What about the GI50 (Renal cancer subpanel; [2]) of the same molecule?
Answer: Its GI50 is 4.93 µM.

Question: And the Selectivity index (Renal cancer subpanel; [3])?
Answer: The Selectivity index was 0.85.

Question: And the GI50 (Breast cancer subpanel; [2])?
Answer: The GI50 was 4.49 µM.

Question: What about the Selectivity index (Breast cancer subpanel; [3]) of the same molecule?
Answer: Its Selectivity index is 0.935.

Question: And the IC50 (VEGFR-2)?
Answer: The IC50 was 0.619 µM.

Question: What about the “times more effective at suppressing VEGFR-2 than sorafenib” value (VEGFR-2; ratio of IC50 values) of the same molecule?
Answer: Its value is 4.1.

Question: What about the GI50 ([1]; Homo sapiens, read-out: Full panel MG-MID (GI50), five-dose assay, mean graph midpoint over full panel) of the same molecule?
Answer: The GI50 was 4.2 µM.

Question: And the CC50 ([1]; Homo sapiens, read-out: LC50)?
Answer: Its CC50 is greater than 100 µM.

Question: What about the “Mean GI%” value ([1]; single dose 10 μM, mean over the NCI 60 panel) of the same molecule?
Answer: The value was 83.58%.

Question: And the GI50 (MOLT-4; Homo sapiens, MOLT-4)?
Answer: Its GI50 is 4.13 µM.

Question: What about the GI% (MOLT-4; single dose 10 μM, leukemia) of the same molecule?
Answer: The GI% was 88.75%.

Question: And the GI50 (SR; Homo sapiens, SR)?
Answer: Its GI50 is 3.15 µM.

Question: What about the GI% (SR; single dose 10 μM, leukemia) of the same molecule?
Answer: Its GI% is 91.17%.

Question: What about the GI50 (HOP-92) of the same molecule?
Answer: The GI50 was 4.78 µM.

Question: And the GI50 (NCI-H460; Homo sapiens, NCI-H460)?
Answer: Its GI50 is 3.64 µM.

Question: What about the GI% (NCI-H460; single dose 10 μM, non-small lung carcinoma) of the same molecule?
Answer: Its GI% is 97.07%.

Question: And the GI50 (COLO 205)?
Answer: The GI50 was 5.28 µM.

Question: What about the GI50 (HCT-15; Homo sapiens, HCT-15) of the same molecule?
Answer: The GI50 was 3.18 µM.

Question: What about the GI% (HCT-15; single dose 10 μM, colon cancer) of the same molecule?
Answer: The GI% was 83.02%.

Question: What about the GI50 (SF-268; Homo sapiens, SF-268) of the same molecule?
Answer: Its GI50 is 4.51 µM.

Question: What about the GI% (SF-268; single dose 10 μM, CNS cancer) of the same molecule?
Answer: Its GI% is 72.21%.

Question: And the GI50 (SNB-75; Homo sapiens, SNB-75)?
Answer: The GI50 was 2.72 µM.

Question: What about the GI% (SNB-75; single dose 10 μM, CNS cancer) of the same molecule?
Answer: Its GI% is 65.51%.

Question: And the GI50 (MDA-MB-435; Homo sapiens, MDA-MB-435)?
Answer: The GI50 was 4.24 µM.

Question: And the GI% (MDA-MB-435; single dose 10 μM, melanoma)?
Answer: The GI% was 83.49%.

Question: What about the GI50 (SK-MEL-28; Homo sapiens, SK-MEL-28) of the same molecule?
Answer: The GI50 was 4.58 µM.

Question: And the GI% (SK-MEL-28; single dose 10 μM, melanoma)?
Answer: The GI% was 80.99%.

Question: What about the GI50 (SK-MEL-5; Homo sapiens, SK-MEL-5) of the same molecule?
Answer: The GI50 was 2.76 µM.

Question: And the GI% (SK-MEL-5; single dose 10 μM, melanoma)?
Answer: The GI% was 90.42%.

Question: And the GI50 (UACC-62)?
Answer: Its GI50 is 1.84 µM.

Question: And the GI50 (IGROV1; Homo sapiens, IGROV-1)?
Answer: Its GI50 is 3.34 µM.

Question: What about the GI% (IGROV1; [4]) of the same molecule?
Answer: The GI% was 89.61%.

Question: What about the GI50 (OVCAR-3; Homo sapiens, OVCAR-3) of the same molecule?
Answer: The GI50 was 4.91 µM.

Question: What about the GI% (OVCAR-3; [4]) of the same molecule?
Answer: The GI% was 81.63%.

Question: What about the GI50 (RXF 393; Homo sapiens, RXF 393) of the same molecule?
Answer: The GI50 was 6.25 µM.

Question: What about the GI% (RXF 393; single dose 10 μM, renal carcinoma) of the same molecule?
Answer: The GI% was 63.52%.

Question: What about the GI50 (UO-31) of the same molecule?
Answer: The GI50 was 2.1 µM.

Question: And the GI50 (HS 578T)?
Answer: The GI50 was 7.94 µM.

Source: article PMC12486440, “Design, synthesis, and in silico studies of new benzofuran–pyrazole hybrids as multi-kinase inhibitors with potential antiproliferative activity” (RSC Advances, 2025)
